Reference: patent publication US8329751B2, “Compounds having aryl-sulphonamidic structure useful as metalloproteases inhibitors” (Bracco Imaging S.p.A., priority 2007, dated 2012)

Columns and labels:
MMP-2 = target: T1, MMP-2 (Homo sapiens, UniProt P08253); assay: MMP inhibition assay, fluorogenic substrate FS-6, MMP-2; type: biochemical; settings: substrate FS-6 2 μM; enzyme and inhibitor incubated 4 h at 25° C.
T1 construct: supplied by Prof; Gillian Murphy (Department of Oncology, University of Cambridge, UK); not a commercial purchase
T1 sequence (P08253 110-660): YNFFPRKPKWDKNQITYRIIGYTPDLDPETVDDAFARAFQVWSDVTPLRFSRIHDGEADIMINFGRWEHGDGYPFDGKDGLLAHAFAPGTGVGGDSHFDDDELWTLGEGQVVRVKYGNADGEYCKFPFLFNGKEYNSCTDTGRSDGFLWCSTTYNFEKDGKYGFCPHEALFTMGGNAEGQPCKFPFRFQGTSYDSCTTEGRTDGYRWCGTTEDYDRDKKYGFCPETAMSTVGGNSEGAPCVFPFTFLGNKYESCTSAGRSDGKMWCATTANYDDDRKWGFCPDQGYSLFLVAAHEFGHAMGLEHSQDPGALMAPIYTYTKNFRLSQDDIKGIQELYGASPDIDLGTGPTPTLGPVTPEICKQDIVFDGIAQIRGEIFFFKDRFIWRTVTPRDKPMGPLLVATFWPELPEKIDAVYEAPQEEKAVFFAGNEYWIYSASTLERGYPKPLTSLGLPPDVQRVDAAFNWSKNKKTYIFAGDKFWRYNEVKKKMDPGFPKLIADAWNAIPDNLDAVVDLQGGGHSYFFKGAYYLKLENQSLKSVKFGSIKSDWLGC
Method: (§1) As reported therein, the inhibitory activity of the compounds of the invention was evaluated on the known fluorogenic substrate (Mca-Lys-Pro-Leu-Gly-Leu-Dpa-Ala-Arg-NH2), shortly referred to as FS-6 (see, as a reference, U. Neumann, Analytical Biochem. 2004, 328, 166-173).
(§2) Recombinant human pro-MMP-2 was supplied by Prof. Gillian Murphy (Department of Oncology, University of Cambridge, UK), while pro-MMP-13 and pro-MMP-14 were purchased from Calbiochem. […] Pro-MMP-14 was activated with trypsin 5 μg/ml for 15 min at 37° C. followed by soybean trypsin inhibitor (SBTI) 23, μg/ml. For assay measurements, the inhibitor stock solutions (DMSO, 100 mM) were further diluted, at seven different concentrations (0.01 nM-100 μM) for each MMP in the fluorimetric assay buffer (FAB: Tris 50 mM, pH=7.5, NaCl 150 mM, CaCl2 10 mM, Brij 35 0.05% and DMSO 1%). Activated enzyme (final concentration 2.9 nM for MMP-2, 1 nM for MMP-14, 0.33 nM for MMP-13) and inhibitor solutions were incubated in the assay buffer for 4 h at 25° C. After the addition of 200 μM solution of the fluorogenic substrate Mca-Lys-Pro-Leu-Gly-Leu-Dpa-Ala-Arg-NH2 (Bachem) (see, for a reference, Neumann, U.; Kubota, H.; Frei, K.; Ganu, V.; Leppert, D. Anal. Biochem. 2004, 328, 166) for all of the enzymes in DMSO (final concentration 2 μM), the hydrolysis was monitored every 15 sec. for 20 min recording the increase in fluorescence (λex=325 nm, λem=395 nm) using a Molecular Device SpectraMax Gemini XS plate reader.
(§3) The assays were performed in triplicate, in a total volume of 200 μl per well, in 96-well microtitre plates (Corning, black, NBS). Control wells lack inhibitor. The MMP inhibition activity was expressed in relative fluorescent units (RFU). Percent of inhibition was calculated from control reactions without the inhibitor. IC50 was determined using the formula: Vi/Vo=1/(1+[I]/IC50), where V, is the initial velocity of substrate cleavage in the presence of the inhibitor at concentration [I] and Vo is the initial velocity in the absence of the inhibitor. Results were analyzed using SoftMax Pro software and GraFit software.

MMP-13 = MMP-13 (Homo sapiens, UniProt P45452); assay: MMP inhibition assay, fluorogenic substrate FS-6, MMP-13; type: biochemical; settings: substrate FS-6 2 μM; enzyme and inhibitor incubated 4 h at 25° C.
Method: as §1, §2, §3

MMP-14 = target: T2, MMP-14 (Homo sapiens, UniProt P50281); assay: MMP inhibition assay, fluorogenic substrate FS-6, MMP-14; type: biochemical; settings: substrate FS-6 2 μM; enzyme and inhibitor incubated 4 h at 25° C.
T2 construct: purchased Calbiochem
Method: as §1, §2, §3

HUVEC [1] = assay: HUVEC growth assay (crystal violet); type: cell-based, human
Method: (§4) Compound (2), as a representative compound of the invention, was tested in an in vivo assay to evaluate its inhibitory activity on cancer cells. In particular, HUVEC cultures were purchased from Cascade Biologics (Portland, Oreg.) and cultured in gelatin-coated flasks using M199, 10% FCS (Fetal Calf Serum, Seromed, Milan, Italy) supplemented with FGF (Fibroblast Growth Factor, PeproTech, Inc., Rocky Hill, N.J.) (1 μg aFGF (acidic Fibroblast Growth Factor)+1 μg bFGF (basic Fibroblast Growth Factor)/100 ml medium), EGF (Epidermal Growth Factor) (1 μg/100 ml medium), heparin (10 mg/100 ml medium), (ICN Pharmaceuticals, Inc., Casta Mesa, Calif.), hydrocortisone (Sigma Chemical Co.) (0.1 mg/100 ml medium).
At day 0 cells were plated in 96 microwell plates at 1000 cells in 200 μl of complete culture medium. The inhibitor was added to the cells at different concentrations (10, 100 μM). HUVEC were quantified at 24, 48 and 72 hrs. Indirect optical density (OD) quantification was obtained fixing/staining the cells for 20 minutes with a crystal violet solution [see, for a reference, Fassina, G. et al., Clin Cancer Res, (2004) 10, 4865-73].

HUVEC [2] = assay: HUVEC chemoinvasion in Boyden chambers; type: cell-based, human; settings: 100 μM, 5 hours
Method: as §4, with “N.J.) (1 μg aFGF” left out, “[…].),” for “Casta Mesa, Calif.),”, “medium). HUVEC invasion was assessed in Boyden chambers (Costar) using serum-free fibroblast conditioned medium (FB-CM) as chemoattractants. Cells were treated with the inhibitor at the indicated doses and incubated at 37° C. for 5 hours in humidified atmosphere. Cell invasion was assessed by densitometric scanning of whole filter surface. Each test was performed in triplicate and repeated three times [see, for a reference, Albini, A., et al., Int. J. Dev. Biol., (2004), 48, 563-71].” for “medium).”

HUVEC [3] = assay: pro-apoptotic activity on HUVEC; type: cell-based, human

SMILES | IC50 (MMP-2) [nM] | IC50 (MMP-13) [nM] | IC50 (MMP-14) [nM] | cell growth inhibition as compared to untreated controls (HUVEC [1]; 10 and 100 μM, 24, 48 and 72 hrs) | inhibition at 100 µM (HUVEC [1]; Homo sapiens, 100 μM, starting from 48 hours of treatment, read-out: cell growth inhibition) [%] | inhibitory activity on endothelial cell migration through a reconstituted basement membrane (HUVEC [2]) | induction of programmed cell death (HUVEC [3]; at 48 hours) | pro-apoptotic activity (HUVEC [3]; high dose (100 μM))
CC(C)ON([C@H](CCNC(=O)c1ccccc1)C(=O)NO)S(=O)(=O)c1ccc(-c2ccccc2)cc1 [Compound 1b, (R)—N-(4-(hydroxyamino)-3-(N-isopropoxybiphenyl-4-ylsulfonamido)-4-oxobutyl)benzamide] | 1.48 ± 0.17 | 4.6 ± 0.1 | 94 |  |  |  |  | 
CC(C)ON([C@H](CCNC(=O)OCc1ccccc1)C(=O)NO)S(=O)(=O)c1ccc(-c2ccccc2)cc1 [Reference Compound (5b), reference compound] | 8.4 ± 0.1 | 4.4 ± 0.5 | 240 ± 19 |  |  |  |  | 
COc1ccc(-c2ccc(S(=O)(=O)N(OC(C)C)[C@H](CCNC(=O)Cc3ccccc3)C(=O)NO)cc2)cc1 [Compound 1g, (R)—N-hydroxy-2-(N-isopropoxy-4′-methoxybiphenyl-4-ylsulfonamido)-4-(2-phenylacetamido)butanamide] | 0.37 ± 0.06 | 0.25 ± 0.02 | 24.7 ± 2.2 |  |  |  |  | 
COc1ccc(-c2ccc(S(=O)(=O)N(OC(C)C)[C@H](CCN3C(=O)c4ccccc4C3=O)C(=O)NO)cc2)cc1 [Compound 2, (R)-4-(1,3-dioxoisoindolin-2-yl)-N-hydroxy-2-(N-isopropoxy-4′-methoxybiphenyl-4-ylsulfonamido)butanamide] | 0.67 ± 0.06 | 0.19 ± 0.01 | 3.9 ± 0.18 | time and dose dependent cell growth inhibition | 100 | significant inhibitory activity | ability to induce programmed cell death | some pro-apoptotic activity
CC(C)ON([C@H](CCNC(=O)Cc1ccccc1)C(=O)NO)S(=O)(=O)c1ccc(-c2ccccc2)cc1 [Compound 1e, (R)—N-hydroxy-2-(N-isopropoxybiphenyl-4-ylsulfonamido)-4-(2-phenylacetamido)butanamide] | 1.43 ± 0.1 | 1.4 ± 0.1 | 80.7 ± 5.4 |  |  |  |  | 
CC(C)ON([C@H](CCNS(C)(=O)=O)C(=O)NO)S(=O)(=O)c1ccc(-c2ccccc2)cc1 [Compound 1c, (R)—N-hydroxy-2-(N-isopropoxybiphenyl-4-ylsulfonamido)-4-(methylsulfonamido)butanamide] | 0.98 ± 0.12 | 2.2 ± 0.3 | 95.5 ± 4.5 |  |  |  |  | 

More lines, in order of falling IC50 (MMP-2), values ahead:

IC50 (MMP-2) [nM] | IC50 (MMP-13) [nM] | IC50 (MMP-14) [nM] | SMILES | cell growth inhibition as compared to untreated controls (HUVEC [1]; 10 and 100 μM, 24, 48 and 72 hrs) | inhibition at 100 µM (HUVEC [1]; Homo sapiens, 100 μM, starting from 48 hours of treatment, read-out: cell growth inhibition) [%] | inhibitory activity on endothelial cell migration through a reconstituted basement membrane (HUVEC [2]) | induction of programmed cell death (HUVEC [3]; at 48 hours) | pro-apoptotic activity (HUVEC [3]; high dose (100 μM))
0.33 ± 0.02 | 0.68 ± 0.1 | 41.1 ± 1.16 | CC(=O)NCC[C@H](C(=O)NO)N(OC(C)C)S(=O)(=O)c1ccc(-c2ccccc2)cc1 [Compound 1d, (R)-4-acetamido-N-hydroxy-2-(N-isopropoxybiphenyl-4-ylsulfonamido)butanamide] |  |  |  |  | 
0.3 ± 0.03 | 0.2 ± 0.01 | 27 ± 1 | COc1ccc(-c2ccc(S(=O)(=O)N(OCCOCCN3CCNCC3)[C@H](CCNC(=O)OCc3ccccc3)C(=O)NO)cc2)cc1 [Compound 1j] |  |  |  |  | 
0.13 ± 0.03 | 0.58 ± 0.04 | 23.5 ± 2.2 | COc1ccc(-c2ccc(S(=O)(=O)N(OC(C)C)[C@H](CCNC(C)=O)C(=O)NO)cc2)cc1 [Compound 1f, (R)-4-acetamido-N-hydroxy-2-(N-isopropoxy-4′-methoxybiphenyl-4-ylsulfonamido)butanamide] |  |  |  |  | 
